Key:
[1] = test system: CYP17; experiment: Endocrine panel (progesterone) in ER+ breast cancer patients; type: in vivo, human; conditions: vs. patients treated with abiraterone and prednisone (Abi/Pred), FIG. 20
Protocol: Subjects that fulfill the Inclusion Criteria captured in Table 4 were administered seviteronel (600 mg for male subjects, 4×150 mg tablets; 450 mg for female subjects, 3×150 mg tablets) once daily until any of the criteria in Table 2 are met. Table 5 captures the clinical screening data and screening schedule for the various screens for each of the male subjects.
Subjects that fulfill the Inclusion Criteria captured in Table 4 were administered seviteronel (600 mg for male subjects, 4×150 mg tablets; 450 mg for female subjects, 3×150 mg tablets) and dexamethasone (0.5 mg) once daily until any of the criteria in Table 2 are met. Table 5 captures the clinical screening data and screening schedule for the various screens for each of the male subjects.
(§1) Blood samples were collected for evaluation of steroid hormone changes as a pharmacodynamics indicator of CYP17 inhibition over time (e.g., DHEA, DHEA-S, androstenedione, testosterone, cortisol, corticosterone, progesterone, pregnenolone, estradiol, estrone and ACTH).

[2] = test system: CYP17; experiment: Endocrine panel in prostate cancer patients treated with seviteronel or seviteronel and dexamethasone; type: in vivo, human; conditions: seviteronel 600 mg once daily, FIG. 7
Protocol: Males that fulfill the Inclusion Criteria captured in Table 1 were administered seviteronel (600 mg; 4×150 mg tablets) once daily until any of the criteria in Table 2 are met. Table 3 captures the clinical screening data and screening schedule for the various screens for each of the male subjects.
Males that fulfill the Inclusion Criteria captured in Table 1 were administered seviteronel (600 mg; 4×150 mg tablets) and dexamethasone (0.5 mg) once daily until any of the criteria in Table 2 are met. Table 3 captures the clinical screening data and screening schedule for the various screens for each of the male subjects.
as §1

Compound: CC(C)[C@](O)(c1ccc2cc(OC(F)F)c(OC(F)F)cc2c1)c1c[nH]nn1 [SEVI]
- increase in progesterone [1]: lack of clinically relevant increases in progesterone
- endocrine profile: "up-stream" steroids [2]: limited increase
- endocrine profile: ACTH [2]: modest ACTH increase
- endocrine profile: androgen [2]: modest androgen decline
- endocrine profile: cortisol [2]: modest cortisol decrease

Source: patent publication US20210292410A1, “TREATMENT PARADIGM FOR AN ANTI-CD19 ANTIBODY AND VENETOCLAX COMBINATION TREATMENT” (MorphoSys AG, priority 2017, published 2021)
